No end group written: not given here.
Biological target: T1, mu-opioid receptor (MOR) (Homo sapiens, UniProt P35372)
T1 construct: expressed in transfected cells; host or cells: CHO-K1
Experiment: functional cellular cAMP assay on CHO-K1 cell lines expressing MOR, co-administration with orthosteric ligand
Type: cell-based
Conditions: for Allosteric activity level (%): 0% = reference agonist at EC20, 100% = maximum activity of reference agonist; for EC50: logEC50(M), log of molar EC50, CHO-K1 cells expressing MOR, cAMP
Method: The properties and functionality of these peptidosteroids were validated using standard experimental methods. To evaluate their allosteric modulation capabilities, functional cellular assays were conducted on CHO-K1 cell lines expressing MOR. These assays utilized fluorescent techniques to measure intracellular cAMP levels as a marker of receptor activity.
The peptidosteroids were tested in co-administration with orthosteric ligands, such as morphine and DAMGO, to assess their ability to influence receptor signaling.
The table below provides additional data on the binding motifs (Candidates 1 and 2) and the resulting peptidomimetics (Candidate 3), offering a detailed comparison of their activity. The percentage values are normalized such that 0% corresponds to the activity of the reference agonist at EC20, while 100% represents the maximum activity of the reference agonist.

T1 sequence (P35372 whole entry): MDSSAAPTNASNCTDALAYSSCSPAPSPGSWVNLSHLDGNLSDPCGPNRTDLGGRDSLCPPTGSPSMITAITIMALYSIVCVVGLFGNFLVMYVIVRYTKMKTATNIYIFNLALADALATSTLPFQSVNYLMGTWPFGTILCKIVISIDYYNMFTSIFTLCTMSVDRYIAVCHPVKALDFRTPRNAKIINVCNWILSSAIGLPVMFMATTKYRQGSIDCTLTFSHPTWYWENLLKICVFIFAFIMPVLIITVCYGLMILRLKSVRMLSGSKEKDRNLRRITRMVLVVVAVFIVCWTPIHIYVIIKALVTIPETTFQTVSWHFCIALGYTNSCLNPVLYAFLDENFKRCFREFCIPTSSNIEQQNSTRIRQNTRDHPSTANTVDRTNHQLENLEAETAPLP

| Substance | Allosteric activity level (%) (agonist present DAMGO) | Allosteric activity level (%) (agonist present morphine) | EC50 (agonist present DAMGO (EC20)) [M] | EC50 (agonist present morphine) [M] |
| --- | --- | --- | --- | --- |
| VCAVGLWGNWLVM [sequence-1, VCAVGLWGNWLVM] | 23.64 | 21.67 | 4.57e-06 | 1e-06 |
| YPWFYL [sequence-4, YPWFYL] | 24.64 | – | 1.35e-06 | – |

From patent US20250215051A1, “Transmembrane Allosteric Short Peptides Modulating Human Mu-Opioid Receptor for Analgesic Effects and Covalent Steroid Modifications of Transmembrane Allosteric Peptides for Enhanced Mu-Opioid Receptor Interaction in Chronic Pain Therapies” (Mu42 SPOLKA Z OGRANICZONA ODPOWIEDZIALNOSCIA, priority 2023, published 2025)
